Measured values as given in ChEMBL document CHEMBL3997838, “Chemical constituents from Sophora tonkinensis and their glucose transporter 4 translocation activities” (Bioorg Med Chem Lett, 2017).
Active and inactive are the calls of the source. The calls are words filed in the database; no cut-off is given here.

The compounds below were run against T1, Solute carrier family 2, facilitated glucose transporter member 4 (Rattus norvegicus) (UniProt P19357) (assay: Enhancement of GLUT4 translocation at plasma membrane of rat L6 cells expressing pIRAP-mOrange at 10 uM after 30 mins by fluorescence assay relative to control).
T1 sequence (whole entry): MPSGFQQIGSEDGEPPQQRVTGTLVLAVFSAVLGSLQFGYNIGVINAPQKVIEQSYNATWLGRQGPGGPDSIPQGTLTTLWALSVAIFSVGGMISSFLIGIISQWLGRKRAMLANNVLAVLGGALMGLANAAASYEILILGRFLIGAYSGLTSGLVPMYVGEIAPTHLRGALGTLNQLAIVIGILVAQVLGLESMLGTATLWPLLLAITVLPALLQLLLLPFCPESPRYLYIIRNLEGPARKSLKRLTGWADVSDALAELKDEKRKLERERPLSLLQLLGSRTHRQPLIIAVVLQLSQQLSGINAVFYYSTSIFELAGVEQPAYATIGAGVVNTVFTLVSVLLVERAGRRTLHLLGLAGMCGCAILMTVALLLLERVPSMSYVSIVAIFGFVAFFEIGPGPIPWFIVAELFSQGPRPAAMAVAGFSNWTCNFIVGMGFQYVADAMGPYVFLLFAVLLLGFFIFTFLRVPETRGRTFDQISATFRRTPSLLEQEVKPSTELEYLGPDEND

Structure (SMILES)	Activity	fold change (FC)
O=c1c(O)c(-c2ccc(O)c(O)c2)oc2cc(O)cc(O)c12	inactive	
CC(C)=CCc1cc2c(c(CC=C(C)C)c1O)O[C@H](c1ccc(O)cc1)CC2=O		1.35 to 2.75
OC[C@H]1O[C@@H](Oc2ccc3c(c2)OC[C@H]2c4cc5c(cc4O[C@@H]32)OCO5)[C@H](O)[C@@H](O)[C@@H]1O	inactive	
CC(=O)OC[C@H]1O[C@@H](Oc2ccc3c(c2)OC[C@H]2c4cc5c(cc4O[C@@H]32)OCO5)[C@H](O)[C@@H](O)[C@@H]1O	inactive	
CC(C)=CCc1c2c(cc3c1O[C@H](c1ccc(O)cc1O)CC3=O)C=CC(C)(C)O2		1.35 to 2.75
CC(C)=CCc1cc([C@@H]2CC(=O)c3ccc(O)c(CC=C(C)C)c3O2)cc2c1OC(C)(C)C=C2		1.35 to 2.75
CC(C)=CCc1cc([C@@H]2CC(=O)c3ccc(O)c(CC=C(C)C)c3O2)ccc1O		1.35 to 2.75
CC(C)=CCc1cc([C@@H]2CC(=O)c3ccc(O)c(CC=C(C)C)c3O2)cc(CC=C(C)C)c1O		2.75
Oc1ccc2c(c1)OC[C@H]1c3cc4c(cc3O[C@@H]21)OCO4	inactive	
COc1ccc2c(c1)O[C@H]1c3ccc(O)cc3OC[C@@H]21	inactive	
CC(C)=CCc1c(O)cc(O)c2c1OC[C@H]1c3cc4c(cc3O[C@@H]21)OCO4		0.79
CC(C)=CCc1c(O)c(CC=C(C)C)c2oc(-c3ccc(O)cc3)c(O)c(=O)c2c1O		1.35 to 2.75

These compounds were tested against T1, Solute carrier family 2, facilitated glucose transporter member 4 (Rattus norvegicus) (assay: Enhancement of GLUT4 translocation at plasma membrane of rat L6 cells expressing pIRAP-mOrange after 30 mins by laser-scanning confocal microscopic method).

Structure (SMILES)	Activity
CC(C)=CCc1cc([C@@H]2CC(=O)c3ccc(O)c(CC=C(C)C)c3O2)cc(CC=C(C)C)c1O	Dose-dependent effect

What follows are compounds tested against T1, Solute carrier family 2, facilitated glucose transporter member 4 (Rattus norvegicus) (assay: Enhancement of GLUT4 translocation at plasma membrane of rat L6 cells expressing pIRAP-mOrange at […] after 30 mins by laser-scanning confocal microscopic method relative to control).

Structure (SMILES)	fold change (FC)
CC(C)=CCc1cc([C@@H]2CC(=O)c3ccc(O)c(CC=C(C)C)c3O2)cc(CC=C(C)C)c1O	2.7
